In patent publication US3986862A, “Emulsifiable liquid concentrates containing 4-amino-6-t-butyl-3-(methylthio)-1,2,4-triazin-5-one and 2-chloro-N-(2,6-diethylphenyl)-N-methoxymethylacetamide” (E. I. Du Pont de Nemours and Company, priority 1974, dated 1976):

Assay type: physicochemical
Protocol: The unexpected solvent synergism between alachlor, metribuzin and chlorobenzene is illustrated in the Table below. […] When metribuzin is the only material in chlorobenzene only 4% can be held in solution at -6° C. This is equivalent to about 0.35 lbs. metrubuzin/gallon. Solutions more concentrated than that could not be stored at the commercially important warehousing conditions at or near the conventional freezing temperatures (32° F. or 0° C.). […] These concentrations represent 0.8 lbs. of metribuzin and 3.2 lbs. of alachlor per gallon.
SOLUBILITY OF METRIBUZIN AT LOW TEMPERATURES IN
LASSO* AND/OR CHLOROBENZENE

[1] = metribuzin the only material in chlorobenzene, at -6° C.

## CSc1nnc(C(C)(C)C)c(=O)n1N [Metribuzin, 4-amino-6-t-butyl-3-(methylthio)-1,2,4-triazin-5-one]
4% metribuzin, 0% alachlor, solvent chlorobenzene
  Incipient Crystallization Temperature: -6 °C
[1]
  amount of metribuzin that can be held in solution: 4%
  amount of metribuzin that can be held in solution, equivalent: about 0.35 lbs. metrubuzin/gallon
